The values that follow come from patent publication EP0658109B1, “METALLO PORPHYRIN COMPOSITIONS” (priority 1992, dated 1994).

Where two headings read alike, the source gives them in different places.

Series [1] in a line: MTT cell viability assay (cytotoxicity). Type of series: cell-based, monkey. As to conditions: monkey, cytotoxicity towards COS A6 cells cultured in the absence of FCS, read-out: LD50 (the source's name). From the text:
(§1) Ex vivo Assay of HIV-1 Polyprotein Processing. COS A6 cells were the result of stable integration of the vector HIV-gpt by transfection of COS-7 cells. This SV40-based vector consists of the HIV-1 HXB2 strain proviral genome where the gp160 sequences were replaced by the […] (gpt) gene. Following transfection, the cells were placed under selection for gpt expression by adding mycophenolic acid to the media. Surviving cells were later cloned and assayed for expression of gag p24 protein by ELISA and Western blots of culture supernatants and whole cell extracts. The cloned COS A6 cell line was maintained in DME H21 supplemented with 10% dialyzed and refiltered fetal calf serum (FCS), antibiotics (100 U/ml penicillin G, 100 µg/ml streptomycin sulfate), hypoxanthine (14 µg/ml), xanthine (250 µg/ml), and mycophenolic acid (25 µg/ml), at 37°C and 5% CO2.
(§2) MTT Cell Viability Assay. Cell survival was assessed by a quantitative colorimetric assay. The tetrazolium salt 3-(4,5-dimethylthiazol-2-yl)2,5-diphenyltetrazolium bromide (MTT) is cleaved by dehydrogenases in active mitochondria of living cells to yield a change in color from yellow to purple. To obtain the LD50 values for each compound, the concentration was determined at which the absorbance at 550-570 nm was half of that for the untreated cells. Compounds were tested in duplicate, in serial dilutions generally ranging from 10-250 µM concentrations in the presence of 0-0.1% DMSO. MTT assays were carried out in both the presence and absence of 10% FCS.
(§3) Cytotoxicity of compounds (LD50) and their ability to inhibit capsid protein processing ex vivo during 4 hour incubations (IC50) were studied. A plasmid which encodes the HIV-1 proviral genome, with the exception of the […] envelope protein, was stably introduced into the monkey cell line COS 7. Cloned progeny, COS A6 cells, constitutively release viral capsids into the media. Inhibition of polyprotein processing was determined by measuring the amount of p24 present in the viral capsid samples with an ELISA assay. The decrease in the amount of detectable p24 antigen correlated with a specific inhibition of HIV PR activity, judged by the accumulation of capsid precursor in conjunction with a disappearance of the p24 mature protein band in Western blots. The MTT stain assay was used to obtain LD50 values for all the compounds tested.
Background: Tetrazolium dyes change colour on reduction, which living cells bring about.

The target of series [2] is T1, Recombinant HIV-1 protease (HIV-1 PR) (Human immunodeficiency virus type 1 group M subtype B, UniProt P03369).
T1 construct: Recombinant HIV-1 protease (HIV-1 PR) was expressed and purified; made in house; host or cells: E. coli strain D1210
Type of series: biochemical. The method, then: (§4) Recombinant Protein Preparation. Recombinant HIV-1 protease (HIV-1 PR) was expressed and purified from E. coli strain D1210 using the pSOD/PR179 vector. Recombinant HIV-2 protease (HIV-2 PR) and SIV protease (SIV PR) were expressed and purified from strain X90 using pTacTac vectors.
(§5) Enzyme Assays. HIV-1, HIV-2, and SIV PRs were assayed against the decapeptide corresponding to the HIV-1 PR C-terminal autoprocessing site, by means of a discontinuous HPLC assay. Recombinant human renin and porcine pepsin were obtained and assayed using standard conditions. Bovine cathepsin D and its chromogenic substrate were purchased from Sigma. The enzyme was assayed by standard methods.
Stock solutions of the porphyrin derivatives (1 µ M-10mM) in 100% DMSO were used in IC50 determinations. […] Control reactions contained 5% DMSO only. Enzymes were preincubated with inhibitor for 1 minute at 25°C, followed by addition of substrate to initiate the reaction. As earlier noted, assays were also carried out in the absence of DMSO, when possible.
Figure 1 is a Dixon plot of inventive embodiment 5 (which is a representative example of the other embodiments) in inhibition of HIV-1 protease, where purified HIV-1 protease (6 x 10^-1 mg/ml) was incubated with the inventive inhibitor in 50 mM sodium acetate buffer, pH 5.5, containing 1 mM dithiothreitol, 1 mM EDTA, and 1 M NaCl. […] The assay solutions were incubated for 30-45 minutes at 37° and enzyme activity was determined by quantitation of the hydrolysis products on HPLC.

For series [3], the target named is T2, Recombinant HIV-2 protease (HIV-2 PR) (Human immunodeficiency virus type 2 subtype A, UniProt P04584).
T2 construct: Recombinant HIV-2 protease (HIV-2 PR) and SIV protease (SIV PR) were expressed and purified; made in house; host or cells: strain X90 (E. coli by own knowledge)
T2 sequence (P04584 514-612 limits assumed): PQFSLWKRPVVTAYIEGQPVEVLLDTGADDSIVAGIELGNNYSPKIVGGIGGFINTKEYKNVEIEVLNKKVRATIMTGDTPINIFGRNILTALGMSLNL
The series is described as follows: HIV-2 protease inhibition, discontinuous HPLC assay of decapeptide cleavage. Type of series: biochemical. On the procedure: as §4, §5
(§6) Stock solutions of the porphyrin derivatives (1 µ M-10mM) in 100% DMSO were used in IC50 determinations. Since many of the derivatives were insoluble in buffer alone, including the free acid forms of the carborane compounds, DMSO was used to increase solubility and allow a comparison of the binding affinity. Compounds were added to buffer solutions containing additional DMSO to give a final concentration of 5%. Control reactions contained 5% DMSO only. Enzymes were preincubated with inhibitor for 1 minute at 25°C, followed by addition of substrate to initiate the reaction. As earlier noted, assays were also carried out in the absence of DMSO, when possible. Dipotassium salts of several of the inhibitors were soluble in aqueous solution and were assayed in the absence of DMSO for K1 and IC50 determinations.

A further series has as its target T3, SIV protease (SIV PR) (Simian immunodeficiency virus, UniProt P05896).
T3 construct: SIV protease (SIV PR) were expressed and purified from strain X90; made in house; host or cells: strain X90 (E. coli by own knowledge)
Briefly: SIV protease inhibition, discontinuous HPLC assay of decapeptide cleavage. To be noted: absence of DMSO. It counts as biochemical. The method, then: as §4, §5
as §6, with “Dipotassium salts of several of the inhibitors were soluble in aqueous solution and were assayed in the absence of DMSO for K1 and IC50 determinations.” left out

The target of a further series is T4, Recombinant human renin (Homo sapiens, UniProt P00797).
T4 sequence (P00797 67-406): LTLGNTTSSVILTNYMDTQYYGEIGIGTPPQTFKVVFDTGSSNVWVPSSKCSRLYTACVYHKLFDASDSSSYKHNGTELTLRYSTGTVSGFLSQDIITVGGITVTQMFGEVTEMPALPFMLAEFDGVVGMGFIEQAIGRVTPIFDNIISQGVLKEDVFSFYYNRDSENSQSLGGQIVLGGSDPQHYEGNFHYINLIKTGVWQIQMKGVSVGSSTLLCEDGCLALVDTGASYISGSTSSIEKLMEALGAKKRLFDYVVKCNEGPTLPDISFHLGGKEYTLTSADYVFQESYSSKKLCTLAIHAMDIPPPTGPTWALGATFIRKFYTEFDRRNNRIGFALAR
The series is described as follows: Renin inhibition, standard conditions. Type of series: biochemical. As to conditions: absence of DMSO. The method, then:
as §5, §6

A further series addresses porcine pepsin (Sus scrofa, UniProt P00791). The series is described as follows: Pepsin inhibition, standard conditions. Type of series: biochemical. As to conditions: absence of DMSO. The method, then: as §5, §6
A further series concerns the target T5, Bovine cathepsin D (Bos taurus, UniProt P80209).
T5 construct: purchased Sigma
Briefly: Cathepsin D inhibition, chromogenic substrate. Type of series: biochemical. To be noted: absence of DMSO. On the procedure: as §5, §6

Another series relates to COS A6 cells. The series is described as follows: MTT cell viability assay (cytotoxicity). As to conditions: cytotoxicity towards COS A6 cells cultured in the absence of FCS, read-out: LD50 (the source's name). Type of series: cell-based, monkey.
From the text: as §1, §2, §3

A further series deals with C6 glioma. Briefly: Colony survival (cytotoxicity). It counts as cell-based. To be noted: in the presence of FCS, read-out: LD50 (the source's name).
A further series concerns V79 CHO cells. Briefly: Colony survival (cytotoxicity). To be noted: in the presence of FCS, read-out: LD50 (the source's name). Type of series: cell-based.
Another series concerns mice. Briefly: Tolerance in mice. To be noted: doses as high as 200 mg/kg. It counts as in vivo.

porcine pepsin, sequence (P00791 60-385): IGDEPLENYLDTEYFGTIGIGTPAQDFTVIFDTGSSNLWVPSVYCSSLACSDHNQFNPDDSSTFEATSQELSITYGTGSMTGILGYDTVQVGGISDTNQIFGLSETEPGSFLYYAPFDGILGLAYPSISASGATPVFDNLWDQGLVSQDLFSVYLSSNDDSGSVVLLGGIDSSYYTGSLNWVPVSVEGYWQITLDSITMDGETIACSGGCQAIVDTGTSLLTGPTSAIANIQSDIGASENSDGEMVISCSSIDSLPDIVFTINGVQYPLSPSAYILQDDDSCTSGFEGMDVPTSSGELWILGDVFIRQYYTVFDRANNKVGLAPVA
T5 sequence (P80209 45-390): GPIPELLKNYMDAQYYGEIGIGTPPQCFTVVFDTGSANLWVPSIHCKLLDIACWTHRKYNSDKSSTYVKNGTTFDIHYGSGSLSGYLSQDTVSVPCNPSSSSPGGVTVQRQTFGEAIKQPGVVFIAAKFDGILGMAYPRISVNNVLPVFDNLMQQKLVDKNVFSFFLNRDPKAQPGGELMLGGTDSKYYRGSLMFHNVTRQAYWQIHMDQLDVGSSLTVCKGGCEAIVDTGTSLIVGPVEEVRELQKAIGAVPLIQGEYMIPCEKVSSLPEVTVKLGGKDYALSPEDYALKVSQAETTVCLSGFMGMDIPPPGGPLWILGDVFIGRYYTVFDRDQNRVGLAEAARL
T3 sequence (P05896 501-596): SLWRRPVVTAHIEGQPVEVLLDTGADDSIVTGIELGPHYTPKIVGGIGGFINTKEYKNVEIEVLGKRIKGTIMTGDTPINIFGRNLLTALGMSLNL

With `CC1=C(C(COC(=O)c2ccc(N(C)C)cc2)OC(=O)c2ccc(N(C)C)cc2)c2cc3nc(cc4[nH]c(cc5[nH]c(cc1n2)c(C)c5CCC(=O)O)c(CCC(=O)O)c4C)C(C(COC(=O)c1ccc(N(C)C)cc1)OC(=O)c1ccc(N(C)C)cc1)=C3C` (centres unmarked) [Comparative Embodiment 9], the CC50 in series [1] is greater than 250 µM.
The same measure, in the same setting: to `CC1=C(C(COC(=O)c2ccccc2)OC(=O)c2ccccc2)c2cc3nc(cc4[nH]c(cc5[nH]c(cc1n2)c(C)c5CCC(=O)O)c(CCC(=O)O)c4C)C(C(COC(=O)c1ccccc1)OC(=O)c1ccccc1)=C3C` (centres unmarked) [Comparative Embodiment 10] belongs 250 µM; to `CC1=C(C(COC(=O)c2ccc3ccccc3c2)OC(=O)c2ccc3ccccc3c2)c2cc3nc(cc4[nH]c(cc5[nH]c(cc1n2)c(C)c5CCC(=O)O)c(CCC(=O)O)c4C)C(C(COC(=O)c1ccc2ccccc2c1)OC(=O)c1ccc2ccccc2c1)=C3C` (centres unmarked) [Comparative Embodiment 11], 250 µM; to `CC1=C(C(O)CO)c2cc3nc(cc4[nH]c(cc5[nH]c(cc1n2)c(C)c5CCC(=O)O)c(CCC(=O)O)c4C)C(C(O)CO)=C3C` (centres unmarked) [Comparative Embodiment 12], 250 µM.
In general, IC50 refers to the concentration needed to halve the response being measured. For the molecule “tetra-carborane carboxylate ester of 2,4-Di(α,β-dihydroxyethyl)deuteroporphyrin (IX) [Inventive Embodiment 1]”, the “concentrations readily prepared in water (water solubility)” value was in the range of 100 to 200 mg/mL. The IC50 in [2] (absence of DMSO, dipotassium salts in aqueous solution, read-out: IC50 HIV-1 PR) was 0.05 µM. Also, the “fold more effective for HIV-1 PR than for HIV-2 and SIV PRs” value in series [2] (from Table 4, absence of DMSO) is reported as “approximately 5 fold”. For the same molecule, the “fold more inhibitory for HIV-1 PR compared to cellular aspartyl proteases” value in series [2] (from Table 4, absence of DMSO, listed as Inventive embodiment 1) was “at least 60 fold”. For the same molecule, the “fold more inhibitory for HIV-1 PR compared to cellular aspartyl proteases” value in series [2] (from Table 4, absence of DMSO, listed as inventive embodiment 1) is reported as “at least a sixty-fold”. Besides, the half-maximal inhibitory concentration (IC50) in [2] (in the presence of 5% DMSO, read-out: IC50 in vitro HIV-1) stood at 0.185 µM. The “decrease of inhibition of HIV-1 PR by fetal calf serum” value in series [2] (incubation with 0.1% FCS, 50 nM inhibitor) is “more than 50%”. For the same molecule, in series [2] (matches the series without DMSO, read-out: IC50 HIV-1 protease), the IC50 was determined as 0.05 µM. Also, the IC50 in series [3] (absence of DMSO, dipotassium salts in aqueous solution, read-out: IC50 HIV-2 PR) was found to be 0.23 µM. Moreover, the IC50 in series [3] (in the presence of 5% DMSO, read-out: IC50 in vitro HIV-2) amounted to 0.7 µM. In addition, the 50% inhibitory concentration (IC50) in series [3] (matches the series without DMSO, read-out: IC50 HIV-2 protease) is 0.23 µM. This molecule also had a 50% inhibitory concentration (IC50) at SIV protease (SIV PR) of 0.25 µM. For the same molecule, at Recombinant human renin, the IC50 stood at 3 µM. The IC50 on porcine pepsin was 4 µM. The same molecule displayed an IC50 against Bovine cathepsin D of 10 µM. Also, the CC50 with COS A6 cells came out at 25 µM. Moreover, in the series with C6 glioma, the CC50 was in the range of 100 to 125 µM. The CC50 with V79 CHO cells was no less than 150 µM. Also, the “tolerance in mice (morbidity or mortality)” value with mice is “no apparent signs of morbidity or mortality”.
